Data set [1] has as its system wildtype TIM. Conditions: compared with D-GAP; ref [30]; cited from earlier work.
For data set [2], the system named is wildtype TIM. The data set can be described thus: Binding of PGA trianion to wildtype TIMs, summary of Table 1. In kind it is biochemical.
The target in data set [3] is T1, I170A TbbTIM (Trypanosoma brucei brucei, UniProt P04789, I172A). Conditions: deprotonation of EH·I^3–; ref [14]; cited from earlier work.
Data set [4] has as its target T1, I170A TbbTIM. The data set can be described thus: TIM-catalyzed isomerization of GAP. The data set is classed as biochemical.
Data set [5] in a line: Storage stability of PGA stock solutions. The data set is classed as physicochemical. Conditions: solutions at pH 7.5 stored at −20 °C.
Data set [6] has as its target wildtype cTIM (Gallus gallus, UniProt P00940). Kind of data set: TIM-catalyzed isomerization of GAP. The data set is classed as biochemical, chicken. The conditions noted are these: deprotonation of EH·I^3–; estimated from (Ki)E·KEHI and (Ki)E.
The conditions of data set [7]: ref [20]; cited from earlier work.
In data set [8] the target is T2, S211A yTIM (Saccharomyces cerevisiae, UniProt P00942, S211A).
T2 sequence (P00942 1-248 S211A): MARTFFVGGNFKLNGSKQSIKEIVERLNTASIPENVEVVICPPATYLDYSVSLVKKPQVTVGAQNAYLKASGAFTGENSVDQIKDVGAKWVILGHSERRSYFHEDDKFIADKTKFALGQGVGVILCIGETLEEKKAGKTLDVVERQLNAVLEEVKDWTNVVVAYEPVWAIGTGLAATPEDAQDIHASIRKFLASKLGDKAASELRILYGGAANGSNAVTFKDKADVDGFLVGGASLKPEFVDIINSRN
Kind of data set: TIM-catalyzed isomerization of GAP. In kind it is biochemical, yeast.

Data set [9] addresses T3, Y208F yTIM (Saccharomyces cerevisiae, UniProt P00942, Y208F).
T3 sequence (P00942 1-248 Y208F): T2 sequence (P00942 1-248 S211A) with Y208F, A211S
The data set can be described thus: TIM-catalyzed isomerization of GAP. In kind it is biochemical, yeast.

Data set [10] addresses mutant TIMs. Kind of data set: Binding of PGA trianion to mutant TIMs, summary of Table 1. The conditions noted are these: read-out: (Ki)E; range over mutant TIMs. In kind it is biochemical.
In data set [11] the target is T4, wildtype TbbTIM (Trypanosoma brucei brucei, UniProt P04789). The conditions noted are these: pH profile linear through pH 9.7; ref [14]; cited from earlier work.
Data set [12] has as its target L7R cTIM (loop 7 replacement) (Gallus gallus, UniProt P00940, G210A/S211G/Y208T). The data set can be described thus: TIM-catalyzed isomerization of GAP. In kind it is biochemical, chicken.
The target in data set [13] is P166A TbbTIM (Trypanosoma brucei brucei, UniProt P04789, P168A). The data set can be described thus: TIM-catalyzed isomerization of GAP. The data set is classed as biochemical. The conditions noted are these: difference to wildtype enzyme.
Data set [14] concerns the target T4, wildtype TbbTIM. In kind it is biochemical. The conditions noted are these: deprotonation of EH·I^3–; estimated from (Ki)E·KEHI and (Ki)E.
Data set [15] in a line: Acidity constants of ligands in water.
Where [16] appears, read: (Ki)E, release of PGA trianion from E^–·I^3–, fit to eq 7.
Where [17] appears, read: deprotonation of EH·I^3–, fit to eq 7.

Residue numbers refer to the chain shown, from its start. “And” between values parts separate entries of the source, which are not always exact repeats. Equal values may be shown once. Some results are limits rather than exact numbers.

Sequence of L7R cTIM (loop 7 replacement) (P00940 whole entry Y208T/G210A/S211G): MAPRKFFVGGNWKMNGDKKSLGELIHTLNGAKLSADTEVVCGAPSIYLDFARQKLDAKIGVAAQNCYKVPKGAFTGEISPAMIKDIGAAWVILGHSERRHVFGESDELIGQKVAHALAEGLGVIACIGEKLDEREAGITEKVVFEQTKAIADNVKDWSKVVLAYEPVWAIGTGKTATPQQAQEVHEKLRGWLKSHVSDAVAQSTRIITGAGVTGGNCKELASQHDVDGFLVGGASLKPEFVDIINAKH
Sequence of wildtype cTIM (P00940 whole entry): as the sequence (P00940 whole entry Y208T/G210A/S211G) above, with T208Y, A210G, G211S counted along it

As for `O=C[C@@H](O)COP(=O)(O)O` [L-GAP], the “binding to TIM” value in [1] is listed as “binds much more weakly to TIM than D-GAP”.
For the compound `O=C(O)COP(=O)(O)O` [PGA, 2-Phosphoglycolic acid], the “binding energy for formation of E^–·I^3–” value in data set [2] (from (Ki)E) turned out to be 3 kcal/mol. Besides, in data set [2] (from (Ki)EH), the “binding energy of I^3– to EH” value is 11.1 to 11.8 kcal/mol. Also, the KEHI in data set [3] is listed as 1.9 × 10^–8 M; in data set [6] it was 2.9 × 10^–11 M; in data set [9] (setting [17]) it was 4.9 × 10^–7 M; in data set [12] (setting [17]), 1.8 × 10^–7 M; in [14], 1.2 × 10^–11 M. The Ki in data set [4] was 7.94 mM; in [8] (setting [16]) it was 20 mM and 24 mM; in data set [9] (setting [16]), 16 mM; in data set [9] (log (Ki)E) it was 15.8 mM; in data set [10], 3 to 30 mM; in [12] it was 2.6 mM. The “Δ(pK)EHI” value in data set [4] (difference to wildtype enzyme) stood at 2.3; in data set [8] (difference to wildtype enzyme), 2.2; in data set [9] (difference to wildtype enzyme), 4.1; in data set [12] (difference to wildtype enzyme), 3.8; in data set [13], 0.7. In addition, in data set [5], the “stability toward hydrolysis of the phosphoryl group” value is recorded as “at least 6 months”. The “pKa for loss of a proton from PGA dianion to form PGA trianion” value in [7] was 6.3. Also, the “pKEHI for release of a proton from the EH·I^3– complex” value in data set [11] is reported as greater than 10.
Regarding `O=C[C@H](O)COP(=O)(O)O` [GAP, D-Glyceraldehyde 3-phosphate], the pKa in data set [15] was determined as 6 ± 0.1.

One may read the Ki as a measure of affinity in units of concentration, obtained from inhibition or displacement. One may read the pKa as the negative logarithm of the acid dissociation constant.

Source of the values: PMC6037162 (Journal of the American Chemical Society, 2018).
